Source: publication PMC6811436, “Epithelial Lining Fluid and Plasma Concentrations of Dalbavancin in Healthy Adults after a Single 1,500-Milligram Infusion” (Antimicrobial Agents and Chemotherapy, 2019)
Like-named read-outs stand apart in the source and are kept apart here.

Key:
[1] = Plasma pharmacokinetics after a single 1,500-mg i.v. dalbavancin infusion, phase 1 study; settings: for Dalbavancin concn, calculated unbound plasma (median): 1,500 mg i.v.
Description: (§1) A phase 1 open-label, single-dose, safety, tolerability, and PK study of ELF and plasma concentrations of dalbavancin was conducted between May and June 2015 at the SOUSEIKAI Hakata Clinic in Fukuoka, Japan. The study was approved by the local institutional review board at the site. Thirty-seven healthy, nonsmoking Japanese adult subjects received a 1,500-mg dose of dalbavancin infused for 30 ± 2 min. Thirty-five subjects (5 enrolled in each of 7 cohorts) had bronchoscopy with bronchial microsampling of ELF using a microsampling probe (BC-401C; Olympus, Tokyo, Japan), as described previously ([9]), at one of seven time points from the start of dalbavancin infusion (4, 8, 12, 24, 72, 120, and 168 h). Topical lidocaine viscous was used for gargling; 4% lidocaine liquid by aerosol spray was then used for topical anesthesia in the larynx, followed by bronchoscopy, with additional 1% or 2% lidocaine applied to the vocal cords and lower airway as needed. Sedation was allowed per local standard of care. In the BMS procedure, microsampling catheter sponge probes were inserted carefully through a fiberoptic bronchoscope into the peripheral airways of the right lower lobe, with the inner probe gently in contact with the bronchial lumen for 15 s. Three unique probe samples were obtained from each subject for a specific time point. The tips of the probe samples were cut at 3 cm from the tip of each probe, and each time point sample consisted of three probes placed in a vial for analysis. Ten blood PK samples were collected into K2EDTA vacutainers from all 37 subjects up to 168 h postdose (0.5, 1, 2, 4, 8, 12, 24, 72, 120, and 168 h), and plasma was harvested for sample bioanalysis.
(§2) The dalbavancin ELF and plasma concentrations were measured using a validated liquid chromatography-tandem mass spectrometry (LC-MS/MS) method in each matrix ([14]). The bioanalytical methods were validated at Tandem Labs (West Trenton, NJ) under sponsor oversight. (Covance is the brand of Covance, Inc., and used by Tandem Labs, Inc., and NWT, Inc., wholly owned subsidiaries of Laboratory Corporation of America Holdings.) Because ELF can only be collected via invasive techniques, validation of the method in ELF was conducted in a surrogate matrix of human serum ultrafiltrate (HUF).
(§3) The plasma LC-MS/MS method was validated on an API 4000 (Sciex, Framingham, MA) using plasma protein precipitation for sample cleanup before injection for detection of the analytes of interest. Detection was carried out using positive-mode electrospray with selected reaction monitoring for the mass spectrometer operation mode. In plasma, the calibration range was validated from 0.500 to 500 μg/ml using 50 μl plasma for each analysis, with a lower limit of quantification (LLOQ) of 0.500 μg/ml. The ELF LC-MS/MS method was validated on an API 5000 (Sciex) using dilution for sample preparation before analysis. For ELF, the calibration range was validated from 0.010 to 2.00 μg/ml using 75 μl sample volume (study sample[s] consisted of ELF; and standards, blanks, and quality controls consisted of HUF in extraction solvent of 40:60 acetonitrile:water), with an LLOQ of 0.010 μg/ml. Detection was carried out using positive-mode electrospray with selected reaction monitoring for the mass spectrometer operation mode. A structural analog of dalbavancin, diethylamide of dalbavancin, was used as an internal standard in both methods in support of quantitation of dalbavancin.
(§4) Statistical analyses of safety parameters were performed using version 9.3 of SAS (SAS Institute, Inc., Cary, NC) on a LINUX operating system. Noncompartmental PK parameters based on plasma and ELF dalbavancin concentrations were determined for individual subjects, and descriptive statistics were performed using the software program Phoenix WinNonlin (version 6.2; Pharsight Corporation, Cary, NC). Plasma concentrations below the LLOQ were treated as 0 for all PK calculations.

[2] = Epithelial lining fluid (ELF) concentrations by bronchial microsampling after a single 1,500-mg infusion; settings: for Dalbavancin concn, ELF (median) / Dalbavancin concn, ELF (mean [SD]): 1,500 mg i.v., LC-MS/MS
Description: as §1, §2, §3, §4

[3] = Safety and tolerability in the phase 1 study; assay type: in vivo, human; settings: 37 subjects; 1,500 mg i.v. single dose
Text: Key inclusion criteria were age between 20 and 55 years and body mass index (BMI) between 18 and 30 kg/m^2. […] Subjects were assigned to cohorts on a first-come, first-served basis. Safety data were collected at each visit (screening [days −28 to −3], baseline [days −3 to −1], and days 1, 2, 4, 6, and 8 to 9) and included adverse events, physical examination, chemistry and hematology assessments (screening/baseline, day 8 to 9), and chest X ray (at screening, to exclude subjects with lung disease, and on the day after BMS sampling).

S. pneumoniae [4] = settings: in vivo, iv
S. aureus [5] = settings: in vivo, iv
[6] = previously established, cited from earlier work
Description: The bioanalysis was conducted to meet current regulated bioanalysis requirements. The sensitivity, accuracy, precision, recovery, carryover, and matrix effect were established, and study samples were analyzed within established appropriate stabilities to cover sample collection, storage, and analysis. Dalbavancin plasma sample stability has previously been established for 368 days at −20 °C and for 56 days at −70°C. Stability of dalbavancin in HUF was established for 46 days at −70 °C. Plasma (370 samples) and ELF (35 samples; samples for each ELF time point collected on 3 BMS probes and analy ...

[7] = cited from earlier work
[8] = cited from earlier work; remark: listed apart in the source
Description: This study evaluated the PK of dalbavancin in ELF and plasma up to 7 days after a single 1,500-mg i.v. infusion in healthy Japanese subjects. Dalbavancin was detectable in bronchial ELF at the earliest time point (4 h postdose) and sustained for ≥7 days, exceeding the MIC90s of S. pneumoniae and S. aureus. While drug exposure at the site of infection is essential for antibacterial activity, the PK/PD parameter associated with efficacy for dalbavancin is AUC/MIC ([3]).

S. aureus [9] = system: S. aureus; design: method as in earlier work; settings: cited from earlier work
Text: (§5) Dalbavancin is 93% protein bound in plasma ([1]), and the pharmacokinetic/pharmacodynamic (PK/PD) parameter best associated with efficacy is area under the concentratio ...

S. pneumoniae [10] = system: S. pneumoniae; design: method as in earlier work; settings: cited from earlier work
Text: as §5

MRSA = settings: one patient switched from vancomycin to dalbavancin 1,500 mg; cited from earlier work
Text: (§6) Dalbavancin has been used off label for treatment of MRSA pneumonia in a patient treated with vancomycin who ...

S. pneumoniae [11] = settings: single dose; immunocompetent and neutropenic rats; penicillin-susceptible and penicillin-resistant S. pneumoniae; cited from earlier work
Text: as §6

[12] = system: penicillin-resistant S. pneumoniae; settings: single dose, rats with lobar pneumonia; cited from earlier work
Text: as §6

[13] = cited from earlier work; remark: listed apart in the source
Text: as §5

[14] = 1,500 mg i.v. single dose, bronchial microsampling
[15] = 8 h, bronchial microsampling, 5 subjects
[16] = 12 h, bronchial microsampling, 5 subjects
[17] = 24 h, bronchial microsampling, 5 subjects
[18] = 72 h, bronchial microsampling, 5 subjects
[19] = 120 h, bronchial microsampling, 5 subjects
[20] = 8 healthy subjects, 1,500 mg dalbavancin, ref Allergan, data on file

## CN[C@H]1C(=O)N[C@@H]2Cc3ccc(cc3)Oc3cc4cc(c3O[C@@H]3O[C@H](C(=O)O)[C@@H](O)[C@H](O)[C@H]3NC(=O)CCCCCCCCC(C)C)Oc3ccc(cc3Cl)[C@@H](O)[C@@H]3NC(=O)[C@H](NC(=O)[C@@H]4NC(=O)[C@@H](NC2=O)c2cc(cc(O)c2Cl)Oc2cc1ccc2O)c1ccc(O)c(c1)-c1c(O[C@H]2O[C@H](CO)[C@@H](O)[C@H](O)[C@@H]2O)cc(O)cc1[C@@H](C(=O)NCCCN(C)C)NC3=O [Dalbavancin]
[1]; 1,500 mg i.v. single dose, noncompartmental
  plasma AUC0–168, mean (SD): 21,087 (2,282) μg · h/ml
[1]; 4 h, calculated with 93% protein binding (unbound fraction 7%)
  Dalbavancin concn, calculated unbound plasma (median): 20 µg/mL
[1]; 8 h, calculated with unbound fraction 7%
  Dalbavancin concn, calculated unbound plasma (median): 16 µg/mL
[1]; 12 h, calculated with unbound fraction 7%
  Dalbavancin concn, calculated unbound plasma (median): 14 µg/mL
[1]; 24 h, calculated with unbound fraction 7%
  Dalbavancin concn, calculated unbound plasma (median): 12 µg/mL
[1]; 72 h, calculated with unbound fraction 7%
  Dalbavancin concn, calculated unbound plasma (median): 8 µg/mL
[1]; 120 h, calculated with unbound fraction 7%
  Dalbavancin concn, calculated unbound plasma (median): 7 µg/mL
[1]; 168 h, calculated with unbound fraction 7%
  Dalbavancin concn, calculated unbound plasma (median): 6 µg/mL
[1]; human, in vivo, iv
  Tmax: 30 min
  clearance: 0.683 mL/min
[1]; human, in vivo, iv, 1500 mg
  level at 0.5 h: 442 µg/mL
  level at 1 h: 397 µg/mL
  level at 2 h: 331 µg/mL
  level at 8 h: 222 µg/mL
  level at 12 h: 194 µg/mL
  level at 24 h: 169 µg/mL
  level at 72 h: 120 µg/mL
  level at 120 h: 94 µg/mL
[2]; [14]
  ELF AUC0–168 (median): 527 µg·h/mL
  ELF Cmax (median): 4 µg/mL
  ELF Tmax (median): 72 h
[2]; 4 h, bronchial microsampling, 5 subjects per time point
  Dalbavancin concn, ELF (median): 1.9 µg/mL
[2]; 4 h, bronchial microsampling, 5 subjects
  Dalbavancin concn, ELF (mean [SD]): 1.9 (1.0) μg/ml
[2]; [15]
  Dalbavancin concn, ELF (mean [SD]): 3.1 (1.9) μg/ml
  Dalbavancin concn, ELF (median): 2.2 µg/mL
[2]; [16]
  Dalbavancin concn, ELF (mean [SD]): 3.6 (2.1) μg/ml
  Dalbavancin concn, ELF (median): 2.8 µg/mL
[2]; [17]
  Dalbavancin concn, ELF (mean [SD]): 2.7 (0.5) μg/ml
  Dalbavancin concn, ELF (median): 2.6 µg/mL
[2]; [18]
  Dalbavancin concn, ELF (mean [SD]): 7.3 (8.2) μg/ml
  Dalbavancin concn, ELF (median): 4.2 µg/mL
[2]; [19]
  Dalbavancin concn, ELF (mean [SD]): 11.9 (20.1) μg/ml
  Dalbavancin concn, ELF (median): 3.3 µg/mL
[2]; 168 h (7 days), bronchial microsampling, 5 subjects
  Dalbavancin concn, ELF (median): 2.1 µg/mL
[2]; 168 h, bronchial microsampling, 5 subjects
  Dalbavancin concn, ELF (mean [SD]): 2.0 (0.6) μg/ml
[2]; ratio of AUC in ELF to unbound AUC in plasma (7% of AUC0–168)
  penetration of dalbavancin into ELF: 36%
[3]
  clinical laboratory parameters: no observed safety concerns in clinical laboratory parameters
  serious AEs: no serious AEs
  severity of treatment-emergent AEs: all were mild
  subjects with at least one treatment-emergent adverse event (AE): Five
  treatment-emergent AEs leading to withdrawal from study-drug therapy: no treatment-emergent AEs leading to withdrawal from study-drug therapy
S. pneumoniae [4]
  time ELF levels exceeded the MIC90 of S. pneumoniae: ≥ 7 days
S. aureus [5]
  time ELF levels exceeded the MIC90 of S. aureus: ≥ 7 days
[6]; −20 °C
  plasma sample stability established for: 368 days
[6]; −70°C
  plasma sample stability established for: 56 days
[7]
  solubility in saline: not soluble in saline
[8]; [20]
  plasma AUC0–24, mean (SD): 5,202.55 (620.05) μg · h/ml
  plasma Cmax, mean (SD): 467.63 (55.73) μg/ml
[8]; 8 healthy subjects, 1,500 mg, range 0.5 to 0.5, ref Allergan, data on file
  mean Tmax: 30 min
[8]; 49 subjects, 1,500 mg dalbavancin
  median Tmax: 37.2 min
S. aureus [9]
  effect of surfactant on in vitro activity: does not appear to be appreciably affected by the presence of surfactant
S. pneumoniae [10]
  effect of surfactant on in vitro activity: does not appear to be appreciably affected by the presence of surfactant
MRSA
  MRSA in sputum cultures: subsequent clearance of MRSA in sputum cultures
S. pneumoniae [11]
  bacterial counts in the lungs: reduction of bacterial counts observed in the lungs
[12]
  lung bacterial load: significant reduction in the lung bacterial load
[13]
  protein bound in plasma: 93%
  terminal half-life: 14.4 days
[13]; single dose of 1,500 mg i.v.
  time plasma concentrations maintained above the MIC90 for most Gram-positive pathogens, including S. aureus: at least 2 weeks
